One experiment has as its target BRD4(BD1) (Homo sapiens (Human), UniProt O60885). As to the kind of experiment: In vitro enzyme inhibition assay (BRD4 AlphaScreen). The experiment is classed as binding. A digest of the protocol:
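AlphaScreen proximity readout, using streptavidin donor and Ni-chelate acceptor beads at 5 μg/mL final, monitors biotin-H4 tetraacetylated peptide interaction with purified His-tagged BRD4.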

Experiment [1] deals with Raji, human Burkitts lymphoma cells. As to the kind of experiment: Cell-MTS proliferation assay, Raji. The experiment is classed as cell-based. The conditions noted are these: Homo sapiens, 168 hr. In outline: (§1)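 Seven-day colorimetric MTS assay; compound at 11 concentrations from 100 μM down to 2.0 nM final, added a day after plating. IC50 from OD490 normalised to DMSO controls.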
A general note: Tetrazolium assays rely on reduction of a dye to a coloured formazan, in cell work by metabolically active cells.

Experiment [2] relates to HL-60, human proleukemia cells. As to the kind of experiment: Cell-MTS proliferation assay, HL-60. In kind it is cell-based. The conditions noted are these: Homo sapiens, 168 hr. In outline:
as §1

For experiment [3], the system named is NCI-H460, human non-small cell lung cancer cells. As to the kind of experiment: Cell-MTS proliferation assay, NCI-H460. The following applies: Homo sapiens, 168 hr. In kind it is cell-based. In outline: as §1
Where [4] appears, read: in vitro enzyme inhibition assay.
The mark [5] stands for this setting: NCI-H460, Cell-MTS proliferation.
The mark [6] stands for this setting: Cell-MTS proliferation, Raji cells.
[7] abbreviates: Cell-MTS proliferation, HL-60 cells.
The mark [8] stands for this setting: Cell-MTS proliferation, NCI-H460 cells.

Molecules are shown by their SMILES. Where only a bound is given, the exact number is not on record here.

On to `CCS(=O)(=O)Nc1ccc(Oc2ccc(F)cc2F)c(-c2cn(C)c(=O)c3nncn23)c1` [Example 236, N-[4-(2,4-difluorophenoxy)-3-(7-methyl-8-oxo-[1,2,4]triazolo[4,3-a]pyrazin-5-yl)phenyl]ethanesulfonamide], for which the IC50 is < 0.5 µM against BRD4(BD1) (setting [4]); > 5 µM in experiment [1] (Raji, Cell-MTS proliferation); 0.5 to 5 µM in experiment [2] (HL-60, Cell-MTS proliferation); > 5 µM in experiment [3] (setting [5]).

Consider `CCS(=O)(=O)Nc1ccc(Oc2ccc(F)cc2F)c(-c2cc(OC(F)F)c(=O)n(C)c2)c1` [Example 289, N-[3-[5-(difluoromethoxy)-1-methyl-6-oxopyridin-3-yl]-4-(2,4-difluorophenoxy)phenyl]ethanesulfonamide], for which the IC50 was < 0.5 µM against BRD4(BD1) (setting [4]); < 0.5 µM in experiment [1] (Raji, Cell-MTS proliferation); < 0.5 µM in experiment [2] (HL-60, Cell-MTS proliferation); > 5 µM in experiment [3] (setting [5]).

Regarding `CCS(=O)(=O)c1ccc(OCC2CC2)c(-c2cc(OC)c(=O)n(C)c2)c1` [Example 399, 5-[2-(cyclopropylmethoxy)-5-ethylsulfonylphenyl]-3-methoxy-1-methylpyridin-2-one], the 50% inhibitory concentration (IC50) against BRD4(BD1) (setting [4]) was < 0.5 µM; in experiment [1] (setting [6]), < 0.5 µM; in experiment [2] (setting [7]), < 0.5 µM; in experiment [3] (setting [8]) it was > 5 µM.

As to `COc1cc(-c2cc(NS(C)(=O)=O)ccc2Oc2ccc(F)cc2F)cn(C)c1=O` [Example 442, N-[4-(2,4-difluorophenoxy)-3-(5-methoxy-1-methyl-6-oxopyridin-3-yl)phenyl]methanesulfonamide], the IC50 against BRD4(BD1) (setting [4]) was < 0.5 µM; in experiment [1] (setting [6]), < 0.5 µM; in experiment [2] (setting [7]) it was < 0.5 µM; in experiment [3] (setting [8]), > 5 µM.

Consider `CCS(=O)(=O)Nc1ncc(OCC2CC2)c(-c2cn(C)c(=O)c3cc(F)ccc23)n1` [Example 160, N-[5-(cyclopropylmethoxy)-4-(7-fluoro-2-methyl-1-oxoisoquinolin-4-yl)pyrimidin-2-yl]ethanesulfonamide], for which the half-maximal inhibitory concentration (IC50) on BRD4(BD1) (setting [4]) is < 0.5 µM; in experiment [1] (Raji, Cell-MTS proliferation) it was < 0.5 µM; in experiment [2] (HL-60, Cell-MTS proliferation), < 0.5 µM; in experiment [3] (setting [5]), > 5 µM.

Take `CCS(=O)(=O)Nc1ccc(Oc2ccc(F)cc2F)c(-c2cc(F)c(=O)n(C)c2)c1` [Example 122, N-[4-(2,4-difluorophenoxy)-3-(5-fluoro-1-methyl-6-oxopyridin-3-yl)phenyl]ethanesulfonamide]: the IC50 at BRD4(BD1) (class symbols A/B/C) is < 0.5 µM; in experiment [1] (Raji, Cell-MTS, class symbols A/B/C), < 0.5 µM; in experiment [2] (HL-60, Cell-MTS, class symbols A/B/C) it was < 0.5 µM; in experiment [3] (NCI-H460, Cell-MTS, class symbols A/B/C), > 5 µM.

Turning to `Cn1cc(-c2ccc3c(=O)n(C)cc(-c4nc(CS(C)(=O)=O)ncc4OCC4CC4)c3c2)cn1` [Example 145, 4-[5-(cyclopropylmethoxy)-2-(methylsulfonylmethyl)pyrimidin-4-yl]-2-methyl-6-(1-methylpyrazol-4-yl)isoquinolin-1-one], the concentration for half-maximal inhibition (IC50) against BRD4(BD1) (setting [4]) was < 0.5 µM; in experiment [1] (Raji, Cell-MTS proliferation), 0.5 to 5 µM; in experiment [2] (HL-60, Cell-MTS proliferation), < 0.5 µM; in experiment [3] (setting [5]) it was > 5 µM.

For the compound `Cc1cc(-c2cc(OCc3ccccc3)cc(S(C)(=O)=O)c2)cn(C)c1=O` [Example 324, 1,3-dimethyl-5-(3-methylsulfonyl-5-phenylmethoxyphenyl)pyridin-2-one], the concentration for half-maximal inhibition (IC50) against BRD4(BD1) (setting [4]) was < 0.5 µM; in experiment [1] (Raji, Cell-MTS proliferation), 0.5 to 5 µM; in experiment [2] (HL-60, Cell-MTS proliferation) it was < 0.5 µM; in experiment [3] (setting [5]) it was > 5 µM.

For the compound `Cn1cc(-c2cc(NS(C)(=O)=O)ccc2Oc2ccc(F)cc2F)cc(C2CC2)c1=O` [Example 279, N-[3-(5-cyclopropyl-1-methyl-6-oxopyridin-3-yl)-4-(2,4-difluorophenoxy)phenyl]methanesulfonamide], the IC50 at BRD4(BD1) (setting [4]) was < 0.5 µM; in experiment [1] (Raji, Cell-MTS proliferation) it was < 0.5 µM; in experiment [2] (HL-60, Cell-MTS proliferation) it was < 0.5 µM; in experiment [3] (setting [5]), > 5 µM.

Take `Cn1cc(-c2nc(NS(C)(=O)=O)ncc2Oc2ccc(F)cc2F)c2ccoc2c1=O` [Example 262, N-[5-(2,4-difluorophenoxy)-4-(6-methyl-7-oxofuro[2,3-c]pyridin-4-yl)pyrimidin-2-yl]methanesulfonamide]: the concentration for half-maximal inhibition (IC50) was < 0.5 µM against BRD4(BD1) (setting [4]); < 0.5 µM in experiment [1] (Raji, Cell-MTS proliferation); < 0.5 µM in experiment [2] (HL-60, Cell-MTS proliferation); > 5 µM in experiment [3] (setting [5]).

On to `Cn1cc(-c2cc(OCc3ccccc3OC(F)F)cc(S(C)(=O)=O)c2)c2ccoc2c1=O` [Example 348, 4-[3-[[2-(difluoromethoxy)phenyl]methoxy]-5-methylsulfonylphenyl]-6-methylfuro[2,3-c]pyridin-7-one], for which the IC50 against BRD4(BD1) (setting [4]) was < 0.5 µM; in experiment [1] (Raji, Cell-MTS proliferation), < 0.5 µM; in experiment [2] (HL-60, Cell-MTS proliferation) it was < 0.5 µM; in experiment [3] (setting [5]) it was 0.5 to 5 µM.

`Cn1cc(-c2cc(S(C)(=O)=O)ccc2OCC2CC2)c2cc(C(N)=O)sc2c1=O` [Example 267, 4-[2-(cyclopropylmethoxy)-5-methylsulfonylphenyl]-6-methyl-7-oxothieno[2,3-c]pyridine-2-carboxamide]: the IC50 at BRD4(BD1) (setting [4]) is < 0.5 µM; in experiment [1] (Raji, Cell-MTS proliferation) it was 0.5 to 5 µM; in experiment [2] (HL-60, Cell-MTS proliferation) it was < 0.5 µM; in experiment [3] (setting [5]), > 5 µM.

For `CCS(=O)(=O)Nc1ccc(OC2CCOCC2)c(-c2cc(C)c(=O)n(C)c2)c1` [Example 441, N-[3-(1,5-dimethyl-6-oxopyridin-3-yl)-4-(oxan-4-yloxy)phenyl]ethanesulfonamide], the IC50 is < 0.5 µM against BRD4(BD1) (setting [4]), < 0.5 µM in experiment [1] (setting [6]), < 0.5 µM in experiment [2] (setting [7]) and > 5 µM in experiment [3] (setting [8]).

Take `Cn1cc(-c2cc(S(C)(=O)=O)ccc2OCC2CC2)c2ccoc2c1=O` [Example 254, 4-[2-(cyclopropylmethoxy)-5-methylsulfonylphenyl]-6-methylfuro[2,3-c]pyridine-7-one]: the IC50 was < 0.5 µM on BRD4(BD1) (setting [4]); < 0.5 µM in experiment [1] (Raji, Cell-MTS proliferation); < 0.5 µM in experiment [2] (HL-60, Cell-MTS proliferation); > 5 µM in experiment [3] (setting [5]).

With `Cc1cc(-c2cc(S(C)(=O)=O)ccc2O[C@H]2CC[C@H](O)CC2)cn(C)c1=O` [Example 401, 5-[2-(4-hydroxycyclohexyl)oxy-5-methylsulfonylphenyl]-1,3-dimethylpyridin-2-one], the IC50 on BRD4(BD1) (setting [4]) is < 0.5 µM; in experiment [1] (setting [6]) it was 0.5 to 5 µM; in experiment [2] (setting [7]), < 0.5 µM; in experiment [3] (setting [8]), > 5 µM.

Turning to `CCS(=O)(=O)c1ccc(OC2CCCC2)c(-c2cn(C)c(=O)c3cncn23)c1` [Example 374, 5-(2-cyclopentyloxy-5-ethylsulfonylphenyl)-7-methylimidazo[1,5-a]pyrazin-8-one], the half-maximal inhibitory concentration (IC50) on BRD4(BD1) (setting [4]) was < 0.5 µM; in experiment [1] (setting [6]), < 0.5 µM; in experiment [2] (setting [7]), < 0.5 µM; in experiment [3] (setting [8]), > 5 µM.

As to `Cn1cc(-c2cn(CS(C)(=O)=O)c(=O)cc2Oc2ccc(F)cc2F)ccc1=O` [Example 386, 4-(2,4-difluorophenoxy)-5-(1-methyl-6-oxopyridin-3-yl)-1-(methylsulfonylmethyl)pyridin-2-one], the half-maximal inhibitory concentration (IC50) against BRD4(BD1) (setting [4]) was < 0.5 µM; in experiment [1] (setting [6]), 0.5 to 5 µM; in experiment [2] (setting [7]) it was 0.5 to 5 µM; in experiment [3] (setting [8]) it was > 5 µM.

For the compound `Cn1cc(-c2ncc3c(=O)n(C)cc(-c4cc(S(C)(=O)=O)ccc4OCC4CC4)c3n2)cn1` [Example 224, 8-[2-(cyclopropylmethoxy)-5-methylsulfonylphenyl]-6-methyl-2-(1-methylpyrazol-4-yl)pyrido[4,3-d]pyrimidin-5-one], the IC50 at BRD4(BD1) (setting [4]) was < 0.5 µM; in experiment [1] (Raji, Cell-MTS proliferation) it was < 0.5 µM; in experiment [2] (HL-60, Cell-MTS proliferation), < 0.5 µM; in experiment [3] (setting [5]) it was > 5 µM.

As to `Cc1cc(-c2cc(S(C)(=O)=O)cc3c2OC(C)C3)cn(C)c1=O` (centres unmarked) [Example 486, 1,3-dimethyl-5-(2-methyl-5-methylsulfonyl-2,3-dihydro-1-benzofuran-7-yl)pyridin-2-one], the IC50 against BRD4(BD1) (setting [4]) is 0.5 to 5 µM; in experiment [1] (setting [6]) it was > 5 µM; in experiment [2] (setting [7]) it was 0.5 to 5 µM; in experiment [3] (setting [8]), > 5 µM.

For `CCS(=O)(=O)c1ccc(O[C@H]2CC[C@H](O)CC2)c(-c2cn(C)c(=O)c3ccccc23)c1` [Example 181, 4-[5-ethylsulfonyl-2-(trans-4-hydroxycyclohexyl)oxyphenyl]-2-methylisoquinolin-1-one], the IC50 at BRD4(BD1) (setting [4]) was < 0.5 µM; in experiment [1] (Raji, Cell-MTS proliferation), < 0.5 µM; in experiment [2] (HL-60, Cell-MTS proliferation), < 0.5 µM; in experiment [3] (setting [5]), > 5 µM.

For the compound `Cc1cc(=O)n(C)cc1-c1cc(CS(C)(=O)=O)ccc1Oc1ccc(F)cc1F` [Example 454, 5-[2-(2,4-difluorophenoxy)-5-(methylsulfonylmethyl)phenyl]-1,4-dimethylpyridin-2-one], the IC50 is < 0.5 µM on BRD4(BD1) (setting [4]), < 0.5 µM in experiment [1] (setting [6]), < 0.5 µM in experiment [2] (setting [7]) and > 5 µM in experiment [3] (setting [8]).

With `CCS(=O)(=O)Nc1ccc(Oc2ccc(F)cc2F)c(-c2cc(OCC(F)(F)F)c(=O)n(C)c2)c1` [Example 290, N-[4-(2,4-difluorophenoxy)-3-[1-methyl-6-oxo-5-(2,2,2-trifluoroethoxy)pyridin-3-yl]phenyl]ethanesulfonamide], the half-inhibitory concentration (IC50) against BRD4(BD1) (setting [4]) is < 0.5 µM; in experiment [1] (Raji, Cell-MTS proliferation), < 0.5 µM; in experiment [2] (HL-60, Cell-MTS proliferation), < 0.5 µM; in experiment [3] (setting [5]), > 5 µM.

Turning to `COc1cc(-c2cc(CS(C)(=O)=O)ccc2Oc2ccc(F)cc2F)cn(C)c1=O` [Example 400, 5-[2-(2,4-difluorophenoxy)-5-(methylsulfonylmethyl)phenyl]-3-methoxy-1-methylpyridin-2-one], the half-maximal inhibitory concentration (IC50) is < 0.5 µM on BRD4(BD1) (setting [4]), < 0.5 µM in experiment [1] (setting [6]), < 0.5 µM in experiment [2] (setting [7]) and > 5 µM in experiment [3] (setting [8]).

The term IC50 denotes the concentration that inhibits the measured activity by half. A low value points to greater potency in that assay.

(Values after US10023592B2, “Bromodomain inhibitors” (Celgene Quanticel Research, Inc., priority 2013, dated 2018).)
